{"source": "patent US20250346943A1", "about": "“DEGRADER COMPOUNDS OF QSOX1 mRNA” (UNIVERSITY OF FLORIDA RESEARCH FOUNDATION, INCORPORATED, priority 2022, published 2025)", "key": {"[1]": {"target": "QSOX1 5′UTR hairpin (model of the QSOX1-a binding site)", "assay": "In vitro binding by fluorescence polarization, Cy5-labeled WT RNA", "set-up": "species or system human", "method": "In Vitro Binding by Measuring Changes in Fluorescence Polarization. Cy5-labeled RNA was folded by heating at 95° C. for 2 min in 1× Folding Buffer and cooled on ice. Serial dilutions of F1 (200 to 0.4 μM, 1:1 dilutions) were prepared in 1× Folding Buffer with 4% (w/v) bovine serum albumin (BSA) with constant DMSO concentration (2% v/v). The compound solutions (10 μL) were added to a well of non-binding 384-well plate (Corning). An equal volume of folded RNA was adding to each well with a final concentration of 50 nM. The samples were incubated at room temperature for 30 min, and then fluorescence polarization was measured with a Molecular Devices SpectraMax M5 plate reader with an excitation wavelength of 640 nm and an emission wavelength of 680 nm."}, "[2]": {"system": "QSOX1-a protein", "assay": "QSOX1-a protein abundance by Western blotting in MDA-MB-231 cells", "assay_type": "cell-based, human", "conditions": "20 μM", "method": "Measuring Protein Abundance by Western Blotting. MDA-MB-231 cells were seeded in 6-well plates at ˜50% confluency and treated with vehicle (DMSO) or compound as described above but without EU treatment. After 16 h, the compound-containing growth medium was removed and replaced with fresh medium containing compound (re-dosing). After an additional 32 h incubation, total protein was harvested (48 h total treatment time). The cells were then washed twice with cold 1×DPBS, and total protein was harvested by using Mammalian Protein Extraction Reagent (M-PER, Thermo Scientific) per the manufacturer's protocol. Protein concentration was quantified by using BCA Protein Assay Kit (Pierce), and the proteins were separated by using 10% SDS-polyacrylamide gel (20 μg protein per lane). After gel electrophoresis in 1× Running Buffer (50 mM MOPS, 50 mM Tris-base, pH 7.5, 1 mM EDTA, and 0.1% (w/v) SDS) at 120 V for 1 h, the proteins were transferred to a PVDF membrane (0.45 μm, Cytiva) at 300 mA for 1 h in 1× Transfer Buffer (25 mM Bicine, 25 mM Tris-base, pH 7.5, 1:4 MeOH:H2O). The membrane was blocked with 5% (w/v) non-fat dry milk in TBST (1×TBS containing 0.1% (v/v) Tween-20) for 1 h at room temperature. The primary antibody for QSOX1 protein (Cat #10092-932, Proteintech) or SQSTM1 protein (Cat #ab 109012, Abcam) was incubated with 1:1000 dilutions at 4° C. for 16 h. The membrane was then washed by TBST four times (5 min each) and then incubated with the secondary antibody (Cat #7074S, Cell Signaling) with 1:5000 dilution at room temperature for 2 h. The membrane was washed with TBST four times (5 min each) and imaged by using a SuperSignal West Pico Chemiluminescent Substrate (Pierce) per manufacturer's protocol. The blot was stripped by washing the membrane in 1× Stripping Buffer (200 mM glycine, pH 2.2, 4 mM SDS, 1% (v/v) Tween 20) at room temperature for 30 min, followed by blocking again as described above. […] Expression levels of proteins were quantified based on band intensity by using ImageJ. […]"}, "[3]": {"system": "MDA-MB-231 cells", "assay": "Invasion assay", "assay_type": "cell-based, human", "conditions": "48 h", "method": "Invasion Assay. MDA-MB-231 cells were seeded in […] and treated with compound or transfected by ASO for 48 h as described in Cell Culture. After treatment for 48 h, the medium was replaced with fresh medium that contains same concentration of compound but lacking FBS for 8 h (serum starvation). ThinCert (GBO) 24-well inserts with 8 μm pores were coated with 100 μL of 0.5 mg/mL Matrigel (Fisher Scientific: CB40234) per well, and then cells were added into the insert (50,000 cells per well). Fresh growth medium with FBS was added to a 24-well plate (600 μL each well), and the inserts containing cells were placed on the top, allowing medium to cover the bottom of the insert. After 16 h, all medium was removed, and cells were washed by 1×DPBS twice. Cells were then fixed with 3% (w/v) paraformaldehyde (PFA) in 1×DPBS at room temperature for 30 min, followed by staining with Crystal Violet (10 mg/mL; 4:1H2O:MeOH) at room temperature for 20 min. A cotton swab was used to gently remove non-invasive cells on sitting on top of the Matrigel. The inserts were then imaged under a regular optical microscope (3 views per well), and the number of invasive cells were counted manually."}, "[4]": {"target": "T1, RNase L (Homo sapiens, UniProt Q05823)", "T1 sequence (Q05823 1-741)": "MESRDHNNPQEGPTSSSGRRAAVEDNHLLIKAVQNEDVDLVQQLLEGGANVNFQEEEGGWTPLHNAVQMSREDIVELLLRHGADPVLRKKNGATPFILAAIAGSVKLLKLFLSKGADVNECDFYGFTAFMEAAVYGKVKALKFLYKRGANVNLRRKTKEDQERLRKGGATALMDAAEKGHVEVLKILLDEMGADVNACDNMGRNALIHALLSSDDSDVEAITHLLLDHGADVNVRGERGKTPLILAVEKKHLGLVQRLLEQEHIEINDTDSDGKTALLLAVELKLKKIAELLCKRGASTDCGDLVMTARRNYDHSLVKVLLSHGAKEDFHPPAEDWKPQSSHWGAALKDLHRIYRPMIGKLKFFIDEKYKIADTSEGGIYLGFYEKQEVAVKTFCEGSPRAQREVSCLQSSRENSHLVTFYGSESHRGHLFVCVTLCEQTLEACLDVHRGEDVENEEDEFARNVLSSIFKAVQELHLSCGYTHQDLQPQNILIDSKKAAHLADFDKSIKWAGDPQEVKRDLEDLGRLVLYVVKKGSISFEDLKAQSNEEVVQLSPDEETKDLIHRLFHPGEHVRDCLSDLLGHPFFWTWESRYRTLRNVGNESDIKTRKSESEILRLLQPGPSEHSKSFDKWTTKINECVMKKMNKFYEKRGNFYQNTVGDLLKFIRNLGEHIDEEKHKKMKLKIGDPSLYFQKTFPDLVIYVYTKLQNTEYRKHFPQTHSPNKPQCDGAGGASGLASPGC", "conditions": "versus the RNase L recruiting module of F1-RIBOTAC; cited from earlier work"}}}
{"molecule": "CCOC(=O)C1=C(Nc2ccccc2)S/C(=C\\c2ccc(O)c(OCCOCCOCCOCCNC(=O)CCC(=O)N(C)[C@H]3CC[C@@H](c4ccc(Cl)c(Cl)c4)c4ccccc43)c2)C1=O", "note": "[Compound F1-CTRL]", "values": [{"measurement": "Kd", "setting": "[1]", "result": "10 ± 3", "unit": "µM"}, {"measurement": "reduction of QSOX1-a protein", "setting": "[2]", "result": "~15", "unit": "%"}, {"measurement": "effect on invasion", "setting": "[3]", "result": "no significant effect"}, {"measurement": "reduction of RNase L recruiting activity", "setting": "[4]", "result": "> 20", "unit": "fold"}]}
